# Legend:
# [1] = tested on: Fasciculus retroflexus (Fr) structure; assay: Mouse brain analysis: Fr structure after cocaine treatment; conditions: wild-type mice, cocaine 25 mg/kg/day for three months, compared to control wild-type mice
# Procedure: Cocaine treated mice were C57BL/6j mice treated with cocaine at 10 a.m. with a dosage of 25 mg/kg/day for three months while the control mice (Hausp^WT) and Hausp^K444R mice were treated with saline. All mice were housed under conditions of controlled humidity (55±10%) and temperature (22±2° C.), with a reversed light cycle in this experiment.
# After the above treatments, all organs were obtained after mouse heart perfusion by saline, and fixed by 4% paraformaldehyde solution for 24 h for H&E, LFB, Silver, Masson's trichrome staining and immunohistochemistry (IHC). Fresh tissues were immediately homogenized in T-PER™ by tissue homogenizer (HT mini homogenizer, OPS Diagnostics LLC, USA) for Western blot analysis.
# Mouse brains were processed following SHIELD processing protocol according to Park, Y. G. et al. 2019. Mice were perfused with ice-cold PBS and then with the SHIELD perfusion solution (ice-cold 1× PBS containing 4% (w/v) PFA and GE38 (polyglycerol 3-polyglycidyl ether) supernatant). Collected brains were incubated in the same perfusion solution at 4° C. for two days. […] Images were reconstructed to a multi-channel-z stack using Imaris file converter, and the regions of the whole brain, habenula region were masked and quantified using the surface function in Imaris software version 9.5.
# [2] = tested on: HAUSP levels in SH-SY5Y cells; assay: Western blot of HAUSP in cocaine-treated SH-SY5Y cells; conditions: cocaine 200 μM with inhibitor, 24 hr; for HAUSP levels decreased by cocaine in SH-SY5Y cells (western blot): FIG. 14C; for relative protein expression ratios of HAUSP normalized with β-actin: quantified with ImageJ, FIG. 14D
# [3] = tested on: lever press induced by cocaine; assay: Lever press test (cocaine self-administration); type: in vivo, mice; conditions: 10 mg/kg intraperitoneally 10 min prior to cocaine self-administration; for cumulative cocaine reinforcements: FIG. 13G; for latency to first response in mice treated with cocaine: FIG. 13H; for lever press frequencies induced by cocaine treatment: FIGS. 13A to 13F
# Procedure: Mice were anesthetized with isoflurane (induction and maintenance at 4%-5%) for surgical implantation of a jugular vein catheter connected to a head-mounted entry port. Briefly, the right jugular vein was exposed, and the catheter tubing was inserted and secured to the vein. The catheter was passed under the skin to an incision on the head, and the port was secured to the skull with dental cement anchored by screws. Mice were given buprenorphine (0.05-0.10 mg/kg, intraperitoneal.) for analgesia and allowed to recover for 7-10 days before beginning self-administration. Catheter patency was maintained by daily infusion of 100 μl heparin (120 U/μl) through the catheter and treated with Cefazolin, 200 mg/kg, subcutaneously, to prevent bacterial infections.
# The lever press test was done in extra wide mouse operant chambers with a modified top (Med Associates, VT, USA). The chamber contained a retractable lever, a food pellet receptacle connected to a pellet dispenser, with a stimulus light above the pellet receptacle, and contained a house light. Cocaine was delivered by a syringe pump located outside the chamber, and the drug delivery tubing was connected to the mice through a swivel (Instech, Plymouth Meeting, PA, USA) and the swivel arm connected on top of the chamber to allow free movement of the mice during self-administration. All the sessions were remotely operated and recorded by MED-PC V software (Med Associates, VT, USA). Mice were pre-trained with food through pressing the levers and were food-restricted during the study. After training, mice were provided ad libitum access to water and food.
# Self-administration sessions took place once daily during the light-dark cycle for 14 consecutive days. Before starting the study, mice were allowed to acclimate to the housing for approximately 3 days. The availability of cocaine reward was indicated by illumination of the house light and pressing levers. […] Each infusion was paired with a cue (1 s illumination of the stimulus green light) followed by a 10-second time-out signaled by turning off the house light. […] Each chamber was operated under a 3-hour session, or until mice received 100 infusions (20 mg/kg) of cocaine (to prevent cocaine overdose). No treatment groups were implanted with a catheter and placed in the operant chambers with identical cues but not connected to the syringe pump and received no reward for pressing the active levers. Vehicle or inhibitor (Compound 2-2, Compound 2-3, or Compound 3-3) with a dosage of 10 mg/kg was injected intraperitoneally for 10 min prior to cocaine self-administration. The content of the vehicle is 0.5% DMSO, 25% PEG-300, 4% Tween-80, and 70.5% saline. Mice met criteria for acquisition of self-administration when they: (1) self-administered at least 30 infusions in a session; (2) >85% of responses were on the active […]; and (3) had no more than 20% variation in number of infusions between sessions. The lever press frequency and number within 3 hours indicate the cocaine addiction symptom.
# [4] = tested on: Fasciculus retroflexus (Fr) structure; assay: Fr structure of cocaine induced mice after treatment; type: in vivo, C57BL/6JNar1 mice; conditions: cocaine 25 mg/kg/day i.p. three months, then compound 25 mg/kg/day three months; for length of Fr diminished by cocaine treatment: FIG. 16, 17A; for volume of Fr diminished by cocaine treatment: FIG. 16, 17B
# Procedure: (§1) C57BL/6JNar1 mice of 6-months age were used in this Experiment. This Experiment included four groups: the normal control group (saline group), the cocaine+saline group, the cocaine+Compound 2-2 group, and the cocaine+Compound 3-3 group. There were 7 mice in the cocaine+Compound 2-2 group and 6 mice each in the rest of the groups. The normal control group received no experimental treatment. […] Heart rate, systolic blood pressure and mean blood pressure of all four groups were measured with a device (MK-2000ST, NP-NIBP Monitor for Mice & Rats, Muromachi, Japan) and the results thereof were shown in FIG. 15. Moreover, the Fr structure of all four groups was measured according to the method of Experiment 7 and the results thereof were shown in FIG. 16 and FIGS. 17A and 17B.
# [5] = tested on: cocaine conditioned place preference; assay: Conditioned place preference (CPP) test induced by cocaine; type: in vivo, mice; conditions: compound 10 mg/kg 10 mins before cocaine 25 mg/kg i.p.; FIG. 12D
# Source text: (§2) Conditioned place preference (CPP) is a classical conditioning paradigm used in behavioral neuroscience to study the rewarding and aversive properties of drugs or other stimuli. It involves associating a particular environment or location with the experience of a rewarding or aversive stimulus, such as drugs, food, or electric shock. In CPP experiment, mice were first trained to associate one compartment of a box and then, they were placed in the neutral compartment and allowed to freely explore both compartments, and animals' preference for one compartment over the other was measured. After vehicle/Compound 2-2 (10 mg/kg)/Compound 2-3 (10 mg/kg)/Compound 3-3 (10 mg/kg) treatment for 10 mins, the well-trained mice were administrated with cocaine (25 mg/kg, i.p.) for 30 mins. The content of the vehicle is 0.5% DMSO, 25% PEG-300, 4% Tween-80, and 70.5% saline. The locomotion activity experiment was the same as the method of open field test described in Experiment 2.
# SIAH1 = biological target: T1, SIAH1 (Homo sapiens, UniProt Q8IUQ4); assay: E3-ligase auto ubiquitination assay (K48-linked polyubiquitination of HAUSP mediated by SIAH1); type: biochemical; conditions: 37° C., 1 hour, Western blot with Ub-K48 antibody, compared to vehicle; FIG. 14A, 14B
# T1 sequence (Q8IUQ4 1-282): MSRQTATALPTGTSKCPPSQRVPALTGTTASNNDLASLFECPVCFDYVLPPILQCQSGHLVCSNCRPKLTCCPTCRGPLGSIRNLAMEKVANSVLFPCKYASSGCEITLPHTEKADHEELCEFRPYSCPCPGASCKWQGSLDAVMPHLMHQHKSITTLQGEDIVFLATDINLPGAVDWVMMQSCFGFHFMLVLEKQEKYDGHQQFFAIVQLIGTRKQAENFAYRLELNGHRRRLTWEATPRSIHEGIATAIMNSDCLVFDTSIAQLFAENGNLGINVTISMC
# Procedure: SIAH1 mediates the K48-linked polyubiquitination of HAUSP. Therefore, for the ubiquitination assay, SIAH1 was incubated in the solution (0.25 mg/1 ml, total 100 μg) containing 20 mM Tris-HCl buffer (pH 8.0), 100 mM NaCl, 1 mM DTT and 40% glycerol and HAUSP (50 μg) was in 50 mM HEPES pH 7.5, 100 mM NaCl, 1 mM TCEP (tris (2-carboxyethyl) phosphine) buffer. […] The E3-ligase auto ubiquitination assay was performed by E3 Ligase Auto-Ubiquitilylation Assay Kit (Abcam, ab139469, UK).
# [6] = tested on: heart rate and blood pressure induced by cocaine; assay: Heart rate and blood pressure of cocaine induced mice; type: in vivo, C57BL/6JNar1 mice; conditions: cocaine 25 mg/kg/day i.p. three months, then compound 25 mg/kg/day three months; FIG. 15
# Procedure: as §1
# [7] = tested on: locomotion activity induced by cocaine; assay: Locomotion activity (open field test) of cocaine induced mice; type: in vivo; conditions: compound 10 mg/kg 10 mins before cocaine 25 mg/kg i.p.; FIGS. 12A to 12C
# Source text: 8 mice from Preparation Example 2 were randomly chosen to conduct Locomotion Activity I. The open fields using white acrylic chambers measured 50 cm (length)×50 cm (width)×38 cm (height) were made from white high density and non-porous plastics. Once the Video Tracking software (ANY-maze, Stoelting Co, IL, USA) was opened, the cursor was moved to the “Single-Subject Tracking” option located under the “Data Acquisition” tab and single-clicked to open this option. The software package used in this protocol allows the tracking of up to 6 individual mice at one time. The mice were brought to open fields to acclimate to the procedure room for 30 minutes (min) prior to starting the test. The tracking plot of randomly chosen 6 mice was recorded and analyzed by ANY-maze software.
# as §2
smiles,measurement,setting,value
COC(=O)[C@H]1[C@@H](OC(=O)c2ccccc2)C[C@@H]2CC[C@H]1N2C [cocaine],diameter of Fr,[1]; FIG. 10D,decreased
same,length of Fr,[1]; FIG. 10E,decreased
"COCCNC(=O)c1ccccc1NC(=O)c1c(C)cc(C)cc1C [Compound 3-3, N-(2-((2-Methoxyethyl)carbamoyl)phenyl)-2,4,6-trimethylbenzamide]",HAUSP levels decreased by cocaine in SH-SY5Y cells (western blot),[2],can restore
same,relative protein expression ratios of HAUSP normalized with β-actin,[2],can restore
same,cumulative cocaine reinforcements,[3],decreased
same,latency to first response in mice treated with cocaine,[3],increased
same,lever press frequencies induced by cocaine treatment,[3],decreased
same,length of Fr diminished by cocaine treatment,[4],partially rescued
same,volume of Fr diminished by cocaine treatment,[4],partially rescued
same,time spent in cocaine paired compartments (CPP test),[5],decreased
same,inhibition of K48-linked polyubiquitination of HAUSP mediated by SIAH1,SIAH1,can inhibit
same,blood pressure induced by cocaine,[6],decreased
same,heart rate induced by cocaine,[6],decreased
same,increased locomotion activity or increased distance traveled induced by cocaine treatment,[7],decreased
"COCCNC(=O)c1ccc(Cl)cc1NC(=O)c1ccccc1C [Compound 2-2, 4-Chloro-N-(2-methoxyethyl)-2-(2-methylbenzamido) benzamide]",HAUSP levels decreased by cocaine in SH-SY5Y cells (western blot),[2],can restore
same,relative protein expression ratios of HAUSP normalized with β-actin,[2],can restore
same,cumulative cocaine reinforcements,[3],decreased
same,latency to first response in mice treated with cocaine,[3],increased
same,lever press frequencies induced by cocaine treatment,[3],decreased
same,length of Fr diminished by cocaine treatment,[4],partially rescued
same,volume of Fr diminished by cocaine treatment,[4],partially rescued
same,time spent in cocaine paired compartments (CPP test),[5],decreased
same,inhibition of K48-linked polyubiquitination of HAUSP mediated by SIAH1,SIAH1,can inhibit
same,blood pressure induced by cocaine,[6],decreased
same,heart rate induced by cocaine,[6],decreased
same,increased locomotion activity or increased distance traveled induced by cocaine treatment,[7],decreased
